Assay results published in the NIST ThermoML archive (doi:10.1016/j.fluid.2007.07.002).
± gives the expanded uncertainty stated by the source.

Assay: xn = mol fraction of the nth substance listed
Conditions: 298.15 K, 101 kPa, Liquid

CC(C)CC(C)(C)C [2,2,4-trimethylpentane] + CCCO
Conditions	mass density [kg/m3]
x2 = 0.0531	690.2 ± 0.4
x2 = 0.098	692.4 ± 0.4
x2 = 0.1986	698.3 ± 0.3
x2 = 0.2981	705.1 ± 0.3
x2 = 0.3987	713.1 ± 0.3
x2 = 0.4987	722.3 ± 0.3
x2 = 0.5987	732.9 ± 0.3
x2 = 0.6994	745.8 ± 0.3
x2 = 0.8007	761 ± 0.3
x2 = 0.9	779.2 ± 0.3
x2 = 0.9499	789.6 ± 0.3

C=COCCC [propyl vinyl ether] + CC(C)CC(C)(C)C
Conditions	mass density [kg/m3]
x1 = 0.0468	690 ± 0.4
x1 = 0.1011	692.6 ± 0.4
x1 = 0.1999	697.5 ± 0.3
x1 = 0.2997	703 ± 0.3
x1 = 0.399	709 ± 0.3
x1 = 0.5009	715.9 ± 0.3
x1 = 0.6008	723.4 ± 0.3
x1 = 0.7005	731.6 ± 0.3
x1 = 0.7997	740.8 ± 0.3
x1 = 0.8991	751.2 ± 0.3
x1 = 0.9507	757.1 ± 0.3

C=COCCC [propyl vinyl ether] + CCCO
Conditions	mass density [kg/m3]
x1 = 0.051	798.7 ± 0.3
x1 = 0.1008	796.3 ± 0.3
x1 = 0.2001	791.7 ± 0.3
x1 = 0.2995	787.3 ± 0.3
x1 = 0.4016	782.9 ± 0.3
x1 = 0.4983	779.1 ± 0.3
x1 = 0.5999	775.3 ± 0.3
x1 = 0.7013	771.8 ± 0.3
x1 = 0.7977	768.7 ± 0.3
x1 = 0.8977	765.7 ± 0.3
x1 = 0.9507	764.3 ± 0.3
